The values that follow come from patent US20100099698A1, “Compositions for Improving Skin Conditions Comprising Matrine or Its Oxidized Derivatives” (Biospectrum Inc., priority 2007, published 2010).

For one test, the target named is T1, tyrosinase (Mus musculus, UniProt P11344).
T1 construct: This cell pellets were lysated using lysis buffer, centrifuged at 12,000 rpm for 10 min and the supernatant was collected; endogenous in cells; host or cells: B16 F1 mouse melanoma cells (Korean Cell Line Bank)
T1 sequence (P11344 19-533): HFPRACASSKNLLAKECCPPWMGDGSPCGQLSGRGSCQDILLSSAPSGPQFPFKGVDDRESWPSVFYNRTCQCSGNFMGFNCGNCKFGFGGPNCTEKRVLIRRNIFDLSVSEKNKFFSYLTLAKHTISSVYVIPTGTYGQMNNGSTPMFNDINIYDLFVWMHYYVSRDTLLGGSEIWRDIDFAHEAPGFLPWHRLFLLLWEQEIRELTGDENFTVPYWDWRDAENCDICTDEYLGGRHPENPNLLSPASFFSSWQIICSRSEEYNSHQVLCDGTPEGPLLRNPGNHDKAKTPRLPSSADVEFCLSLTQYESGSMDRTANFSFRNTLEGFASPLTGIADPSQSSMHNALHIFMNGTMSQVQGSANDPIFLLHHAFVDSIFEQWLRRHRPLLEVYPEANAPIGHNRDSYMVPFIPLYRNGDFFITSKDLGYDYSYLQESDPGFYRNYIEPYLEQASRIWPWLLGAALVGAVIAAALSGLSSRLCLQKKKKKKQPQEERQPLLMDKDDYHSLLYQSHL
The test is described as follows: Inhibition of intracellular tyrosinase activity in melanoma cells. It is filed as cell-based, Murine. The conditions noted are these: B16-F1; 100 μM, 3 days, B-16 F1 cells; read-out: Inhibitory rate of intracellular tyrosinase activity (%). On the procedure:
After measuring the inhibition of melanin production by matrine and oxymatrine using B16 mouse melanoma cells (Korean Cell Line Bank), the measurement was compared with that for the inhibition of intracellular tyrosinase activities by arbutin, known as a melanin production inhibitor.
Murine melanoma (B-16 F1) cells were seeded into each well of a 6-well plate (1×10^5 cells/well) in DMEM containing 10% FBS (fetal bovine serum) and the cells were cultured to about more than 80% adherence by incubating in a CO2 incubator under conditions of 37° C. and 5.0% CO2. After cultivation, the medium was removed and samples were replaced in medium diluted at suitable concentration, followed by incubating for 3 days under conditions of 37° C. and 5.0% CO2. […] The cells removing medium were washed with PBS (phosphate buffer saline) and treated with trypsin to collect cells. Number of the collected cells was calculated using hematocytometer, centrifuged at 5,000 to 10,000 rpm for 10 min and the supernatant was eliminated, thereby obtaining pellets. This cell pellets were lysated using lysis buffer, centrifuged at 12,000 rpm for 10 min and the supernatant was collected. Then, the cell solution was measured for absorbance at 492 nm using microplate reader and the activity of tyrosinase per cell constant number was estimated.

The test system of a further test is pigmentation of skin. Description: Skin whitening of UV-induced pigmentation, chromameter L* value. It is filed as in vivo, brown guinea pigs. The following applies: 1.0 %, topical once or twice a day for 50 days, UV-pigmented abdominal skin. The protocol:
A whitening effect of matrine and oxymatrine was measured using brown guinea pigs (Charles River Laboratories, Inc.), known to increase its pigmentation upon exposure to ultraviolet light, like in humans. To cause pigmentation in the brown guinea pig by ultraviolet (UV), aluminum foil with square windows of 3×3 cm^2 was adhered to hair-removed abdominal skin of brown guinea pig, and then UV light was irradiated thereon with a SE lamp (wavelength 290-320 nm, Toshiba) (total irradiation energy=1350 mJ/cm^2). After UV irradiation, the aluminum foil was removed and samples (matrine, oxymatrine or albutin) were applied as the following method. […] From the maximum, samples were applied. Applications performed once or twice a day for 50 days. […] The control with only the solvent was applied to another site. Occurrence of cumulative irritation also was examined. The degree of pigmentation of skin was determined using a chromameter (CR2002, MINOLTA, JP) to estimate the effects of applied samples. L*a*b* colorimetric system was used to classify color and L* value was used as standard in the present invention. The L* value was corrected using white board standard and was measured more than five times at one site, repeatedly. Pigmentation was evenly distributed. Skin color differences (ΔL*) between application initial point and application terminal point were obtained and then using these values, their effects of the applied samples were estimated. ΔL*=L* value at […] after application-L* value at application initial day. Equation 1 ΔL* values were obtained both at sample application site and control application site and compared, whereby the effects of the whitening substances can be estimated.

The subject of the next test is B16 mouse melanoma cells. The test is described as follows: Inhibition of melanin production in melanoma cells. The following applies: 72 h, 100 μM, 3 days, read-out: Inhibitory rate of melanin production (%). It is filed as cell-based. The protocol: After measuring the inhibition of melanin production by matrine and oxymatrine using B16 mouse melanoma cells (Korean Cell Line Bank), the measurement was compared with that for the inhibition of melanin production by arbutin, known as a melanin production inhibitor.
B16 mouse melanoma cells F10 (Korean Cell Line Bank) were seeded into each well of a 6-well plate (1×10^5 cells/well) in DMEM (Dulbecco's modified Eagle's media) containing 10% FBS (fetal bovine serum) and the cells were cultured to about more than 80% confluence by incubating in a CO2 incubator under conditions of 37° C. and 5.0% CO2. After cultivation, the medium was removed and samples were replaced in medium diluted at suitable concentration, followed by incubating for 3 days under conditions of 37° C. and 5.0% CO2. […] The cells removing medium were washed with PBS (phosphate buffer saline) and treated with trypsin to collect cells. Number of the collected cells was calculated using hematocytometer (Tiefe Depth Profondeur 0.100 mm, Paul Marienfeld GmbH & Co. KG, D.E), centrifuged at 5,000 to 10,000 rpm for 10 min and the supernatant was eliminated, thereby obtaining pellets. This cell pellets were dried at 60° C., 100 μl of 1M NaOH containing 10% DMSO was added to thereto, and intracellular melanin was obtained in incubator at 60° C. Then, the cell solution was measured for absorbance at 490 nm using microplate reader (Bio-Tek ELx8081U, U.S) and the amount of melanin per cell constant number was estimated.

On to `OC[C@H]1O[C@@H](Oc2ccc(O)cc2)[C@H](O)[C@@H](O)[C@@H]1O` [Albutin, arbutin, reference compound], for which the inhibition at 100 µM on tyrosinase worked out at 29%; in the test with B16 mouse melanoma cells, 26%. Besides, the “Whitening effects (ΔL)” value in the test with pigmentation of skin is reported as 0.49.
